Test results as given in patent publication US10294202B2, “Pyrrolidinones as herbicides” (FMC Corporation, priority 2013, dated 2019).

Key:
wheat = assay: Test A pre-/postemergence herbicide test; format: in vivo, Triticum aestivum
Procedure, shortened: (§1)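 Planted in loam–sand blend; treated the same day preemergence by directed soil spray, while separately grown plants at one- to two-leaf stage got postemergence spray. Compared visually with untreated controls after approximately 10 days; 100 means complete control.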

barnyardgrass [1] = assay: Test B flooded paddy test; format: in vivo, Echinochloa crus-galli; conditions: 250 g ai/ha, Flood; scale of 0 to 100 where 0 is no effect and 100 is complete control
Procedure, shortened: (§2)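 Scoring: visual, compared with untreated controls, 0 = no effect through 100 = complete control, taken 13 to 15 days after treatment in the greenhouse. Compounds had been added to paddy water over soil flooded 3 cm deep at the plants' 2-leaf stage.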

velvetleaf = assay: Test A pre-/postemergence herbicide test; format: in vivo, Abutilon theophrasti
Procedure, shortened: as §1

corn = assay: Test A pre-/postemergence herbicide test; format: in vivo, Zea mays
Procedure, shortened: as §1

sedge, umbrella [2] = assay: Test B flooded paddy test; format: in vivo, Cyperus difformis; conditions: 250 g ai/ha, Flood; scale of 0 to 100 where 0 is no effect and 100 is complete control
Procedure, shortened: as §2

barnyardgrass [3] = assay: Test A pre-/postemergence herbicide test; format: in vivo, Echinochloa crus-galli
Procedure, shortened: as §1

morningglory = assay: Test A pre-/postemergence herbicide test; format: in vivo, Ipomoea spp.
Procedure, shortened: as §1

giant foxtail = assay: Test A pre-/postemergence herbicide test; format: in vivo, Setaria faberii
Procedure, shortened: as §1

rice [4] = assay: Test B flooded paddy test; format: in vivo, Oryza sativa; conditions: 250 g ai/ha, Flood; scale of 0 to 100 where 0 is no effect and 100 is complete control
Procedure, shortened: as §2

pigweed = assay: Test A pre-/postemergence herbicide test; format: in vivo, Amaranthus retroflexus
Procedure, shortened: as §1

crabgrass, large = assay: Test A pre-/postemergence herbicide test; format: in vivo, Digitaria sanguinalis
Procedure, shortened: as §1

ducksalad [5] = assay: Test C flooded paddy test; format: in vivo, Heteranthera limosa; conditions: Flood
Procedure, shortened: (§3)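 Visual ratings from 0, no effect, to 100, complete control, were made against untreated controls after 13–15 greenhouse days. Compounds had gone straight into paddy water 3 cm above the soil, kept at that depth, on 2-leaf-stage plants.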

rice [6] = assay: Test C flooded paddy test; format: in vivo, Oryza sativa; conditions: Flood
Procedure, shortened: as §3

barnyardgrass [7] = assay: Test C flooded paddy test; format: in vivo, Echinochloa crus-galli; conditions: Flood
Procedure, shortened: as §3

ducksalad [8] = assay: Test B flooded paddy test; format: in vivo, Heteranthera limosa; conditions: 250 g ai/ha, Flood; scale of 0 to 100 where 0 is no effect and 100 is complete control
Procedure, shortened: as §2

sedge, umbrella [9] = assay: Test C flooded paddy test; format: in vivo, Cyperus difformis; conditions: Flood
Procedure, shortened: as §3

kochia = assay: Test A pre-/postemergence herbicide test; format: in vivo, Kochia scoparia
Procedure, shortened: as §1

ragweed = assay: Test A pre-/postemergence herbicide test; format: in vivo, Ambrosia elatior
Procedure, shortened: as §1

blackgrass = assay: Test A postemergence herbicide test; format: in vivo, Alopecurus myosuroides
Procedure, shortened: (§4)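 Visual injury rating, 0 (no effect) to 100 (complete control), versus untreated controls ~10 days after treatment. Postemergence spray applied at one- to two-leaf stage, plants 2–10 cm tall, potted in loam soil/sand. Greenhouse-held.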

galium = assay: Test A postemergence herbicide test; format: in vivo, Galium aparine
Procedure, shortened: as §4

ryegrass, Italian = assay: Test A pre-/postemergence herbicide test; format: in vivo, Lolium multiflorum
Procedure, shortened: as §1

[10] = Postemergence, 125 g ai/ha, 0 to 100 scale, 0 no effect, 100 complete control
[11] = Postemergence, 500 g ai/ha, 0 to 100 scale (0 no effect, 100 complete control)
[12] = Preemergence, 125 g ai/ha, visual rating on 0 to 100 scale (0 no effect, 100 complete control)
[13] = preemergence, 500 g ai/ha, 0 to 100 scale
[14] = 125 g ai/ha, scale of 0 to 100 where 0 is no effect and 100 is complete control, 13 to 15 days
[15] = Postemergence, 125 g ai/ha, visual rating on 0 to 100 scale (0 no effect, 100 complete control), approx. 10 days
[16] = Postemergence, 125 g ai/ha, 0 to 100 scale, 0 is no effect, 100 is complete control
[17] = Preemergence, 125 g ai/ha, 0 to 100 scale where 0 is no effect and 100 is complete control
[18] = preemergence, 500 g ai/ha, 0 to 100 scale, 0 is no effect and 100 is complete control
[19] = 125 g ai/ha, 0 to 100 scale, 0 is no effect, 100 is complete control
[20] = 500 g ai/ha, 0 to 100 scale (0 no effect, 100 complete control)
[21] = 250 g ai/ha, scale of 0 to 100 where 0 is no effect and 100 is complete control, 13 to 15 days

With `O=C1NCC(c2cccc(Cl)c2)C1C(=O)Nc1ccccc1F` (racemic) [Compound 89] the “Plant response rating, Wheat” value (wheat; [10]) was 0, the “Plant response rating, Wheat” value (wheat; [11]) was 20 and the “Wheat plant response rating” value (wheat; [12]) was 0. For the same compound, the “Plant response rating, Wheat” value (wheat; [13]) was 10, the “Plant response rating, Barnyardgrass” value (barnyardgrass [1]) was 60 and the “Plant response rating, Velvetleaf” value (velvetleaf; [10]) was 0. For the same compound, the “Plant response rating, Velvetleaf” value (velvetleaf; [11]) was 0, the “Velvetleaf plant response rating” value (velvetleaf; [12]) was 0 and the “Plant response rating, Velvetleaf” value (velvetleaf; [13]) was 0. The “Plant response rating, Corn” value (corn; [10]) was 0, the “Plant response rating, Corn” value (corn; [11]) was 30 and the “Corn plant response rating” value (corn; [12]) was 0. For the same compound, the “Plant response rating, Corn” value (corn; [13]) was 0, the “Plant response rating, Sedge, Umbrella” value (sedge, umbrella [2]) was 0 and the “Plant response rating, Barnyardgrass” value (barnyardgrass [3]; [10]) was 60. For the same compound, the “Plant response rating, Barnyardgrass” value (barnyardgrass [3]; [11]) was 80, the “Barnyardgrass plant response rating” value (barnyardgrass [3]; [12]) was 60 and the “Plant response rating, Barnyardgrass” value (barnyardgrass [3]; preemergence, 500 g ai/ha, 0 to 100 scale (0 no effect, 100 complete control)) was 80. For the same compound, the “Plant response rating, Morningglory” value (morningglory; [10]) was 0, the “Plant response rating, Morningglory” value (morningglory; [11]) was 10 and the “Morningglory plant response rating” value (morningglory; [12]) was 0. The “Plant response rating, Morningglory” value (morningglory; [13]) was 0, the “Plant response rating, Foxtail, Giant” value (giant foxtail; [10]) was 60 and the “Plant response rating, Foxtail, Giant” value (giant foxtail; [11]) was 80. The “Foxtail, Giant plant response rating” value (giant foxtail; [12]) was 80, the “Plant response rating, Foxtail, Giant” value (giant foxtail; [13]) was 90 and the “Plant response rating, Rice” value (rice [4]) was 20. For the same compound, the “Plant response rating, Pigweed” value (pigweed; [10]) was 0, the “Plant response rating, Pigweed” value (pigweed; [11]) was 20 and the “Pigweed plant response rating” value (pigweed; [12]) was 0. The “Plant response rating, Pigweed” value (pigweed; [13]) was 0, the “Plant response rating, Crabgrass, Large” value (crabgrass, large; [10]) was 60 and the “Plant response rating, Crabgrass, Large” value (crabgrass, large; [11]) was 80. The “Crabgrass, Large plant response rating” value (crabgrass, large; [12]) was 80, the “Plant response rating, Crabgrass, Large” value (crabgrass, large; [13]) was 90 and the “Plant response rating, Ducksalad” value (ducksalad [5]; [14]) was 70. For the same compound, the “Plant response rating, Ducksalad” value (ducksalad [5]; 250 g ai/ha, scale 0 to 100) was 85, the “Plant response rating, Ducksalad” value (ducksalad [5]; 500 g ai/ha, scale 0 to 100) was 100 and the “Plant response rating, Ducksalad” value (ducksalad [5]; 1000 g ai/ha, scale 0 to 100) was 100. The “Plant response rating, Rice” value (rice [6]; [14]) was 0, the “Plant response rating, Rice” value (rice [6]; 250 g ai/ha, scale 0 to 100) was 0 and the “Plant response rating, Rice” value (rice [6]; 500 g ai/ha, scale 0 to 100) was 0. The “Plant response rating, Rice” value (rice [6]; 1000 g ai/ha, scale 0 to 100) was 0, the “Plant response rating, Barnyardgrass” value (barnyardgrass [7]; [14]) was 20 and the “Plant response rating, Barnyardgrass” value (barnyardgrass [7]; 250 g ai/ha, scale 0 to 100) was 20. The “Plant response rating, Barnyardgrass” value (barnyardgrass [7]; 500 g ai/ha, scale 0 to 100) was 40, the “Plant response rating, Barnyardgrass” value (barnyardgrass [7]; 1000 g ai/ha, scale 0 to 100) was 75 and the “Plant response rating, Ducksalad” value (ducksalad [8]) was 70. The “Plant response rating, Sedge, Umbrella” value (sedge, umbrella [9]; [14]) was 0, the “Plant response rating, Sedge, Umbrella” value (sedge, umbrella [9]; 250 g ai/ha, scale 0 to 100) was 0 and the “Plant response rating, Sedge, Umbrella” value (sedge, umbrella [9]; 500 g ai/ha, scale 0 to 100) was 0. For the same compound, the “Plant response rating, Sedge, Umbrella” value (sedge, umbrella [9]; 1000 g ai/ha, scale 0 to 100) was 0.

For `CN1CC(c2ccc(F)cc2)C(C(=O)Nc2ccccc2F)C1=O` (stereo not drawn) [Compound 270], the “Plant response rating, Wheat” value (wheat; [15]) was 0, the “Plant response rating, Wheat” value (wheat; [11]) was 20 and the “Plant response rating, Kochia” value (kochia; [16]) was 0. The “Plant response rating, Kochia” value (kochia; [11]) was 30, the “Plant response rating, Kochia” value (kochia; [17]) was 0 and the “Plant response rating, Kochia” value (kochia; [18]) was 80. For the same compound, the “Plant response rating, Corn” value (corn; [16]) was 0, the “Plant response rating, Corn” value (corn; [11]) was 30 and the “Plant response rating, Ragweed” value (ragweed; [11]) was 0. For the same compound, the “Plant response rating, Ragweed” value (ragweed; [17]) was 0, the “Plant response rating, Ragweed” value (ragweed; [18]) was 20 and the “Plant response rating, Barnyardgrass” value (barnyardgrass [3]; [16]) was 90. For the same compound, the “Plant response rating, Barnyardgrass” value (barnyardgrass [3]; [11]) was 90, the “Plant response rating, Barnyardgrass” value (barnyardgrass [3]; [17]) was 60 and the “Plant response rating, Barnyardgrass” value (barnyardgrass [3]; [18]) was 90. For the same compound, the “Plant response rating, Blackgrass” value (blackgrass; [19]) was 0, the “Plant response rating, Blackgrass” value (blackgrass; [20]) was 20 and the “Plant response rating, Morningglory” value (morningglory; [15]) was 0. For the same compound, the “Plant response rating, Foxtail, Giant” value (giant foxtail; [16]) was 60, the “Plant response rating, Foxtail, Giant” value (giant foxtail; [11]) was 90 and the “Plant response rating, Foxtail, Giant” value (giant foxtail; [17]) was 80. For the same compound, the “Plant response rating, Foxtail, Giant” value (giant foxtail; [18]) was 90, the “Plant response rating, Pigweed” value (pigweed; [15]) was 40 and the “Plant response rating, Pigweed” value (pigweed; [11]) was 0. For the same compound, the “Plant response rating, Pigweed” value (pigweed; [17]) was 0, the “Plant response rating, Pigweed” value (pigweed; [18]) was 20 and the “Plant response rating, Ducksalad” value (ducksalad [5]; [14]) was 75. The “Plant response rating, Ducksalad” value (ducksalad [5]; [21]) was 85, the “Plant response rating, Ducksalad” value (ducksalad [5]; 500 g ai/ha, scale 0 to 100) was 100 and the “Plant response rating, Ducksalad” value (ducksalad [5]; 1000 g ai/ha, scale 0 to 100) was 100. For the same compound, the “Plant response rating, Galium” value (galium; [19]) was 20, the “Plant response rating, Galium” value (galium; [20]) was 50 and the “Plant response rating, Rice” value (rice [6]; [14]) was 0. For the same compound, the “Plant response rating, Rice” value (rice [6]; [21]) was 0, the “Plant response rating, Rice” value (rice [6]; 500 g ai/ha, scale 0 to 100) was 0 and the “Plant response rating, Rice” value (rice [6]; 1000 g ai/ha, scale 0 to 100) was 0. For the same compound, the “Plant response rating, Barnyardgrass” value (barnyardgrass [7]; [14]) was 10, the “Plant response rating, Barnyardgrass” value (barnyardgrass [7]; [21]) was 30 and the “Plant response rating, Barnyardgrass” value (barnyardgrass [7]; 500 g ai/ha, scale 0 to 100) was 60. The “Plant response rating, Barnyardgrass” value (barnyardgrass [7]; 1000 g ai/ha, scale 0 to 100) was 80, the “Plant response rating, Sedge, Umbrella” value (sedge, umbrella [9]; [14]) was 0 and the “Plant response rating, Sedge, Umbrella” value (sedge, umbrella [9]; [21]) was 0. The “Plant response rating, Sedge, Umbrella” value (sedge, umbrella [9]; 500 g ai/ha, scale 0 to 100) was 0, the “Plant response rating, Sedge, Umbrella” value (sedge, umbrella [9]; 1000 g ai/ha, scale 0 to 100) was 0 and the “Plant response rating, Ryegrass, Italian” value (ryegrass, Italian; [11]) was 20. The “Plant response rating, Ryegrass, Italian” value (ryegrass, Italian; [17]) was 0 and the “Plant response rating, Ryegrass, Italian” value (ryegrass, Italian; [18]) was 0.
